Measurements as given in US4910196A, “Highly soluble antibacterially active organic salts of pyridobenzothiazines” (Mediolanum Farmaceutici Srl, priority 1986, dated 1990).
Structures can show the parent of a compound that is named as a salt.

Columns and labels:
[1] = pH of the aqueous solution; assay type: physicochemical; conditions: for pH: in solution in water
physchem = conditions: water, Solubility in H2O

Compound | water solubility [mg/mL] | pH [1] | solubility (physchem) [mg/mL] | pH values (in words) ([1]; in solution) | pH ([1]; listed as gluconate)
CN1CCN(c2c(F)cc3c(=O)c(C(=O)O)cn4c3c2SCC4)CC1 [Salt with citric acid] | 2.7 | 3.99-4.00 | – | – | –
CN1CCN(c2c(F)cc3c(=O)c(C(=O)O)cn4c3c2SCC4)CC1 [Salt with L-tartaric acid] | 6 | 4.09-4.10 | – | – | –
CN1CCN(c2c(F)cc3c(=O)c(C(=O)O)cn4c3c2SCC4)CC1 [9-fluoro-10[N-(4'-methyl)piperazinyl]-7-oxo-2,3-dihydro-7H-pyrido[1,2,3 de][1,4]benzothiazine-6-carboxylic acid hydrochloride, reference compound] | 8 | – | – | – | –

Next, values leading:

water solubility [mg/mL] | pH [1] | solubility (physchem) [mg/mL] | pH values (in words) ([1]; in solution) | pH ([1]; listed as gluconate) | Compound
87 | approximately 3 | – | – | – | CN1CCN(c2c(F)cc3c(=O)c(C(=O)O)cn4c3c2SCC4)CC1 [methanesulphonate, 9-fluoro-10[N-(4'-methyl)piperazinyl]-7-oxo-2,3-dihydro-7H-pyrido[1,2,3 de][1,4]benzothiazine-6-carboxylic acid methanesulphonate]
360 | 5.07-5.10 | 360 | particularly high pH | about 5 | CN1CCN(c2c(F)cc3c(=O)c(C(=O)O)cn4c3c2SCC4)CC1 [Salt with gluconic acid]
3 | 4.22 | – | – | – | CN1CCN(c2c(F)cc3c(=O)c(C(=O)O)cn4c3c2SCC4)CC1 [Salt with malonic acid]
